For three molecules, antimicrobial activity and hygroscopicity results are on record in patent EP1918289A2, “Crystalline fluoroquinolone arginine salt form” (Wockhardt Limited, priority 2002, dated 2005).

Data set [1] is described as follows: antibacterial activity (minimum inhibitory concentration, MIC). The settings on record: compared with the R-(+)- and RS-(±)- acids.
The nature of data set [2]: hygroscopicity (exposure or storage at relative humidity, gravimetric). The settings on record: on exposure at a relative humidity of 41%.

Consider `C[C@H]1CCc2c(N3CCC(O)CC3)c(F)cc3c(=O)c(C(=O)O)cn1c23`, for which the antimicrobial activity entry in data set [1] is “more potent”. Take “S-(-)-9-fluoro-6,7-dihydro-8-(4-hydroxypiperidin-1-yl)-5-methyl-1-oxo-1 H,5H-benzo[i,j] quinolizine-2-carboxylic acid, L-arginine salt 0.25 hydrate”: the hygroscopicity entry in data set [2] was “highly hygroscopic and turn into syrups”. Turning to “S-(-)-9-fluoro-6,7-dihydro-8-(4-hydroxypiperin-1-yl)-5-methyl-1-oxo-1H,5H-benzo[i,j] quinolizine-2-carboxylic acid, L-arginine salt, 0.75 hydrate”, the hygroscopicity result in data set [2] was “highly hygroscopic and turn into syrups”.
